# Assay results published in US11903386B2, “Strigolactone analogs and their usage in plant control” (King Abdullah University of Science and Technology, priority 2016, dated 2024).
# Entries after “also recorded” stand apart in the source; their conditions may differ.
# Columns and labels:
# [1] = system: Arabidopsis seedlings; experiment: Arabidopsis hypocotyl elongation assay; assay type: in vivo; conditions: 1.0 μM
# Method: Sterilized Arabidopsis seeds were sown on half strength MS (with 0.5% sucrose+1% agar, 0.5 g L-1 MES, pH 5.7) plates supplemented with MPs or GR24 (at 1.0 μM). Plates were stored at 4° C. in darkness for 3 days. To initiate germination, plates were exposed to continuous white light for 24 h then transferred to continuous monochromatic red light (160 Lux, 22° C.) conditions for another 4 days. For hypocotyl length measurement, at least 30 seedlings were measured using the publically available ImageJ software (http://rsbweb.nih.gov/ij/) after taking digital photographs. Monochromatic red light source was applied as described previously (Wu and Yang, 2010). Light flow rates were measured using a Li250 quantum photometer (Li-Cor, Lincoln, NE, USA).
# [2] = system: P. ramosa seeds; experiment: P. ramosa seed germination bioassay; assay type: in vivo; conditions: 1.0 μM
# Method: Parasitic weed seeds (S. hermonthica and P. ramosa) germination activity was recorded as described previously (Jamil et al., 2012). Six pre-conditioned seed discs were placed in a 90 mm petri-dish containing a filter paper ring wetted with 0.9 ml sterile MilliQ water. […] GR24 solutions with equal concentrations and sterile MilliQ water were included as a positive and negative control, respectively. After application, seeds were incubated at 30° C./25° C. in the dark for two days. Germination (seeds with radical emerging through seed coat) was scored under a binocular microscope, and germination rate (%) was calculated.
# [3] = system: Striga; experiment: Trial in Burkina Faso, wooden boxes with artificially infested soil and pearl millet host; assay type: in vivo; conditions: 1×1 m^2 boxes, artificially infested soil, pearl millet host
# Method: Very recently, the activity of MP1 was also evaluated in a trial conducted in Burkina Faso, in which 1×1 m^2 wooden boxes were used which were filled with artificially infested soil and pearl millet as a host.
# [4] = system: rice leaf segments; experiment: Dark-induced leaf senescence of rice leaf segments; assay type: in vivo, O. sativa, var. Shiokari
# Method: One week old rice (O. sativa, var. Shiokari) seedlings were established as mentioned above. Uniform seedlings were transferred to 50 ml tubes containing half strength Hoaglands nutrient solution for 7 days and grown in an incubator under white fluorescent light (130-180 μM m^−2 s^−1) with 16 h:8 h (L/D) at 28° C. for one week. Leaf segments of 2 cm were cut from middle part of third leaves of rice plants. Each segment was put in a well (in 24-well plates) containing 2 ml of 2.5 mM MES buffer with 0.05% Tween-20, and incubated at 30° C. in the dark for 7 days. After application of MPs, color change, chlorophyll content, ion leakage and gene expression were monitored daily for 7 days.
# [5] = system: rice seedlings (Shiokari, d3, d10); experiment: Growth and fresh biomass of hydroponically grown rice seedlings; assay type: in vivo; conditions: 2.5 μM, twice a week for three weeks
# Method: Rice seeds (WT, d3, d10) were surface-sterilized by washing with 70% ethanol for 1 min and then with 2.5% sodium hypochlorite for 15 min. Seeds were then rinsed thoroughly with sterile MilliQ water and incubated in water for 2 days at 30° C. in the dark. Pre-germinated seeds were transferred to filter papers containing ½ strength MS medium in 90 mm petri dishes and incubated at 30° C. under fluorescent white light (130-180 μM m^−2 s^−1) for one week. Seven day-old seedlings were transferred to 50 ml falcon tubes (one seedling per tube) containing modified half-strength Hoagland nutrient solution and grown in greenhouse. Plants were treated with MPs at 2.5 μM-2.5×10-7 μM, using GR24 as positive control. The compounds were applied six times, twice a week. Number of tillers per plant, plant height and fresh biomass were measured at final harvest.
smiles,measurement,setting,value
COC(=O)/C(=C/OC1C=C(C)C(=O)O1)c1ccc(Cl)cc1 (stereo not shown) [MP7],Inhibition of hypocotyl growth,[1],stronger inhibitory effect than GR24
"COC(=O)/C(=C/OC1C=C(C)C(=O)O1)c1ccc([N+](=O)[O-])cc1 (racemic) [MP1, (E)-methyl 3-(4-methyl-5-oxo-2,5-dihydrofuran-2-yloxy)-2-(4-nitrophenyl)acrylate]",P. ramosa seed germination activity,[2],much higher activity; also recorded: quite similar to that of GR24
same,Germination activity compared with GR24,[3],significantly higher germination activity than GR24
"COC(=O)/C(=C/OC1C=C(C)C(=O)O1)c1ccccc1 (racemic) [MP3, (E)-methyl 3-(4-methyl-5-oxo-2,5-dihydrofuran-2-yloxy)-2-phenylacrylate]",Transcript levels of Senescence Associated Genes Osl20 and Osl295,[4]; after 5 days of treatment,more pronounced in MP3 treated samples
same,"Change in leaf color, time relative to control","[4]; dark, leaf segments",about two days earlier than the control
same,"Change in leaf color, day observed","[4]; dark, leaf segments monitored 7 days",already on the third day after treatment
same,Ion leakage compared to the control,[4]; first five days,did not detect a difference
same,Ion leakage compared to the control,[4]; sixth and seventh day,striking increase
same,Chlorophyll content,[4]; third day,clear reduction
same,"Growth, senescence symptoms and biomass of rice seedlings",[5],stunted the growth and caused senescence symptoms; also recorded: growth retardation and senescence
